Experimental data as given in the NIST ThermoML archive (doi:10.1016/j.fluid.2006.07.016).
± gives the expanded uncertainty stated by the source.

Columns and labels:
[1] = 298.2 K; 101.33 kPa; Liquid
[2] = refractive index (Na D-line) (dimensionless); details: 298.2 K; 101.33 kPa; Liquid; Standard Abbe refractometry

mass density [1] [kg/m3]	refractive index [2]	Compound
799.7 ± 0.5	1.3839 ± 0.0007	CCCO [propan-1-ol]
882.5 ± 0.4	1.3828 ± 0.0007	CCCOC(C)=O [propyl ethanoate]
